For data set [1] the following is noted: cited from earlier work.
Data set [2] in a line: Dependence of EGCG concentration in rat plasma on dose. The settings on record: different doses, FIG. 2. In kind it is in vivo.
Data set [3] in a line: Pharmacokinetic study of EGCG in rat plasma after peroral administration. In kind it is in vivo. The following applies: for AUC0-24 hr / Cmax: rat plasma. As for the experimental part: Experiments were conducted on laboratory rats of Sprague-Dawley breed weighing between 250 g and 350 g. All studies on animals were conducted in accordance with “Guidelines for Care and Use of Experimental Animals,” […] At fixed time intervals (10 and 30 minutes, 1, 1.5, 2, 3, 8, and 24 hours), blood samples were drawn from the animals and, following centrifuging, plasma was drawn from the samples for analysis, refrigerated, and kept at −80° C. until it was needed for studies. For analytical studies to be conducted, the plasma samples were unfrozen, centrifuged, and divided into aliquots of 0.1 ml each. The samples were extracted three times in 2 ml of ethyl acetate for 5 minutes at constant shaking. Following extraction, the samples were centrifuged at 1,000 r.p.m. for 10 minutes. The supernatant was separated and placed in a glass tube.

In data set [4] the test system is rats. The data set can be described thus: Toxicity observed in the rat pharmacokinetic study. The data set is classed as in vivo. The following applies: peroral, maximum dose 2,500 mg/kg (G-1), without formulation. As for the experimental part: At fixed time intervals (10 and 30 minutes, 1, 1.5, 2, 3, 8, and 24 hours), blood samples were drawn from the animals and, following centrifuging, plasma was drawn from the samples for analysis, refrigerated, and kept at −80° C. until it was needed for studies.

One may read the Cmax as the peak of the concentration-time curve. Turning to epigallocatechin-3-gallate [EGCG], the “EGCG concentration in human plasma” value in data set [1] (maximum possible tea drinking during the day) is 326 ng/mL. For the same substance, in data set [1] (patients taking preparations containing green tea catechins), the “maximum concentration of EGCG in plasma” value is recorded as no more than 1 μm. Besides, the “dependence of EGCG concentration in rat plasma on dose” value in data set [2] was “nonlinear pattern and reached a plateau at the 500 mg/kg dose”. In data set [3] (500 mg/kg), this substance displayed an AUC0-24 hr of 49.23 ± 4.95 µg·h/mL and a Cmax of 10650 ± 1140 ng/mL. In data set [3] (2.5 g/kg (G-1)), the AUC0-24 hr was 179.2 ± 54.33 µg·h/mL and the Cmax was 58600 ± 22400 ng/mL. Besides, the “EGCG concentration level in plasma” value in data set [3] (rat, 100 mg/kg (G-5)) is on record as “below LOQ”. Further, the toxicity entry in data set [4] is “toxic to the animals”.

Values taken from US9308270B2, “Pharmaceutical composition on the basis of nanomicelles containing epigallocatechin gallate and a method of administration thereof to treat atopic dermatitis, Crohn's disease, adenomyosis, and hyperplastic diseases of the prostate gland” (NORDIC LABS LIMITED, priority 2011, dated 2016).
